Assay: clinical
Settings: human, in vivo, topical or ocular, 46.1 mg

## CCN(CC)CC(=O)Nc1c(C)cccc1C [LIDOCAINE]
AUC(0 to inf)
  AUC: 61.3 ng·h/mL
Cmax
  Cmax: 27.2 ng/mL
Tmax
  Tmax: 45 min

— ChEMBL document CHEMBL3832085
